Laboratory results: PubChem BioAssay AID248 (DTP/NCI, 2004)
“And” between values parts separate entries of the source, which are not always exact repeats. Equal entries are not always repeated. Toxic doses and inconclusive results are not listed. No stated cut-off is given here; in the data, active means T/C of 150% or more; inactive means T/C below 125%.

System: L1210 leukemia ip in BDF1 mice, survival T/C
Assay: NCI In Vivo Anticancer Drug Screen. Data for tumor model L1210 Leukemia (intraperitoneal) in B6D2F1 (BDF1) mice
Conditions: endpoint: mean survival time, higher = longer survival
Method in brief: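 Transplantable tumor model; survival measured in treated vs vehicle control mice. Value = treated/control.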

[1] = dose: 100.0 mg/kg/injection, schedule: Q01DX009 (ip), vehicle: Klucel (hydroxypropylcellulose) (HPC)
[2] = dose: 200.0 mg/kg/injection, schedule: Q01DX009 (ip), vehicle: Klucel (hydroxypropylcellulose) (HPC)
[3] = dose: 400.0 mg/kg/injection, schedule: Q01DX009 (ip), vehicle: Klucel (hydroxypropylcellulose) (HPC)
[4] = dose: 100.0 mg/kg/injection, schedule: Q01DX009 (ip), vehicle: saline with Tween-80
[5] = dose: 200.0 mg/kg/injection, schedule: Q01DX009 (ip), vehicle: saline with Tween-80
[6] = dose: 100.0 mg/kg/injection, schedule: Q01DX001 (ip), vehicle: carboxymethylcellulose (CMC)
[7] = dose: 200.0 mg/kg/injection, schedule: Q01DX001 (ip), vehicle: carboxymethylcellulose (CMC)
[8] = dose: 100.0 mg/kg/injection, schedule: Q04DX003 (ip), vehicle: Klucel (hydroxypropylcellulose) (HPC)
[9] = dose: 200.0 mg/kg/injection, schedule: Q04DX003 (ip), vehicle: Klucel (hydroxypropylcellulose) (HPC)
[10] = dose: 400.0 mg/kg/injection, schedule: Q04DX003 (ip), vehicle: Klucel (hydroxypropylcellulose) (HPC)
[11] = dose: 50.0 mg/kg/injection, schedule: Q01DX009 (ip), vehicle: Klucel (hydroxypropylcellulose) (HPC)
[12] = dose: 5.0 mg/kg/injection, schedule: Q01DX009 (ip), vehicle: saline
[13] = dose: 10.0 mg/kg/injection, schedule: Q01DX009 (ip), vehicle: saline
[14] = dose: 20.0 mg/kg/injection, schedule: Q01DX009 (ip), vehicle: saline
[15] = dose: 40.0 mg/kg/injection, schedule: Q01DX009 (ip), vehicle: saline
[16] = dose: 100.0 mg/kg/injection, schedule: Q01DX001 (ip), vehicle: saline

Measured: T/C

Cc1cc2c(cc1C)/C(=N/O)CCC2
inactive: [1] 100 % of control | [2] 101 % of control | [3] 101 % of control

CCOC(=O)c1ccc(NP(=S)(OCC)OCC)cc1
inactive: dose: 50.0 mg/kg/injection, schedule: Q01DX009 (ip), vehicle: saline with Tween-80 94 % of control | [4] 94 % of control | [5] 96 % of control

CCOC(=O)C1C(=O)C(CN(CCCl)CCCl)C(=O)C(C(=O)OCC)C1c1ccc(OC)c(OC)c1OC (stereo unspecified)
inactive: [1] 90 % of control | [2] 92 % of control | [3] 95 % of control

Oc1ccc(Cl)c2cccnc12
inactive: dose: 4.0 mg/kg/injection, schedule: Q01DX015 (ip), vehicle: carboxymethylcellulose (CMC) 103 % of control | dose: 8.0 mg/kg/injection, schedule: Q01DX015 (ip), vehicle: carboxymethylcellulose (CMC) 106 % of control | dose: 16.0 mg/kg/injection, schedule: Q01DX015 (ip), vehicle: carboxymethylcellulose (CMC) 103 % of control | dose: 32.0 mg/kg/injection, schedule: Q01DX015 (ip), vehicle: carboxymethylcellulose (CMC) 95 % of control | dose: 64.0 mg/kg/injection, schedule: Q01DX015 (ip), vehicle: carboxymethylcellulose (CMC) 102 % of control | [6] 90 % of control | dose: 128.0 mg/kg/injection, schedule: Q01DX015 (ip), vehicle: carboxymethylcellulose (CMC) 100 % of control | [7] 103 % of control

CCOC(=O)COc1c(C(C)CC)cc([N+](=O)[O-])cc1[N+](=O)[O-] (stereo unspecified)
inactive: dose: 25.0 mg/kg/injection, schedule: Q01DX009 (ip), vehicle: gum acacia 93 % of control | dose: 25.0 mg/kg/injection, schedule: Q04DX002 (ip), vehicle: gum acacia 104 % of control | dose: 50.0 mg/kg/injection, schedule: Q01DX009 (ip), vehicle: gum acacia 93 % of control | dose: 50.0 mg/kg/injection, schedule: Q04DX002 (ip), vehicle: gum acacia 100 % of control | dose: 100.0 mg/kg/injection, schedule: Q01DX009 (ip), vehicle: gum acacia 90 % of control | dose: 100.0 mg/kg/injection, schedule: Q04DX002 (ip), vehicle: gum acacia 100 % of control and 92 % of control

O=C(O)c1ccc([N+](=O)[O-])cc1F
inactive: [6] 101 % of control | dose: 100.0 mg/kg/injection, schedule: Q01DX009 (ip), vehicle: carboxymethylcellulose (CMC) 96 % of control and 116 % of control | dose: 100.0 mg/kg/injection, schedule: Q04DX002 (ip), vehicle: Klucel (hydroxypropylcellulose) (HPC) 90 % of control | dose: 100.0 mg/kg/injection, schedule: Q04DX002 (ip), vehicle: carboxymethylcellulose (CMC) 102 % of control and 107 % of control | dose: 100.0 mg/kg/injection, schedule: Q04DX003 (ip), vehicle: carboxymethylcellulose (CMC) 97 % of control | [7] 99 % of control | dose: 200.0 mg/kg/injection, schedule: Q01DX009 (ip), vehicle: carboxymethylcellulose (CMC) 107 % of control and 89 % of control | dose: 200.0 mg/kg/injection, schedule: Q04DX002 (ip), vehicle: Klucel (hydroxypropylcellulose) (HPC) 104 % of control | dose: 200.0 mg/kg/injection, schedule: Q04DX002 (ip), vehicle: carboxymethylcellulose (CMC) 99 % of control and 110 % of control | dose: 200.0 mg/kg/injection, schedule: Q04DX003 (ip), vehicle: carboxymethylcellulose (CMC) 100 % of control | dose: 400.0 mg/kg/injection, schedule: Q01DX009 (ip), vehicle: carboxymethylcellulose (CMC) 89 % of control | dose: 400.0 mg/kg/injection, schedule: Q04DX002 (ip), vehicle: Klucel (hydroxypropylcellulose) (HPC) 93 % of control | dose: 400.0 mg/kg/injection, schedule: Q04DX002 (ip), vehicle: carboxymethylcellulose (CMC) 100 % of control and 86 % of control

Nc1nc(N)c(N=O)c(Nc2ccc(Br)cc2)n1
inactive: dose: 60.0 mg/kg/injection, schedule: Q01DX Z (ip), vehicle: methylcellulose (MC) 108 % of control | dose: 120.0 mg/kg/injection, schedule: Q01DX Z (ip), vehicle: methylcellulose (MC) 103 % of control

O=NN(c1ccccc1)c1ccccc1
inactive: dose: 100.0 mg/kg/injection, schedule: Q01DX001 (ip), vehicle: Klucel (hydroxypropylcellulose) (HPC) 98 % of control | [1] 100 % of control | dose: 200.0 mg/kg/injection, schedule: Q01DX001 (ip), vehicle: Klucel (hydroxypropylcellulose) (HPC) 101 % of control | [2] 102 % of control | dose: 400.0 mg/kg/injection, schedule: Q01DX001 (ip), vehicle: Klucel (hydroxypropylcellulose) (HPC) 87 % of control | [3] 92 % of control

O=C(Nc1cccc(Cl)c1)Nc1cccc(Cl)c1
inactive: [1] 94 % of control | [8] 102 % of control | [2] 108 % of control | [9] 93 % of control | [3] 101 % of control | [10] 100 % of control

CCC(=O)C(CCCCCCOc1ccc(OC)cc1Cl)C(=O)CC
inactive: [4] 92 % of control | [5] 89 % of control | dose: 400.0 mg/kg/injection, schedule: Q01DX009 (ip), vehicle: saline with Tween-80 87 % of control

CCCCC(CC)NC(=O)c1ccc(OC)cc1 (stereo unspecified)
inactive: dose: 12.5 mg/kg/injection, schedule: Q01DX009 (ip), vehicle: Klucel (hydroxypropylcellulose) (HPC) 106 % of control | dose: 25.0 mg/kg/injection, schedule: Q01DX009 (ip), vehicle: Klucel (hydroxypropylcellulose) (HPC) 101 % of control | dose: 25.0 mg/kg/injection, schedule: Q04DX003 (ip), vehicle: Klucel (hydroxypropylcellulose) (HPC) 105 % of control | [11] 95 % of control | dose: 50.0 mg/kg/injection, schedule: Q04DX003 (ip), vehicle: Klucel (hydroxypropylcellulose) (HPC) 103 % of control | [1] 101 % of control | [8] 100 % of control | [9] 103 % of control | [10] 100 % of control

CCC(=O)c1cc(Cl)ccc1O
inactive: dose: 100.0 mg/kg/injection, schedule: Q01DX009 (ip), vehicle: other 100 % of control | dose: 200.0 mg/kg/injection, schedule: Q01DX009 (ip), vehicle: other 104 % of control | dose: 400.0 mg/kg/injection, schedule: Q01DX009 (ip), vehicle: other 102 % of control

O=c1[nH]nc(CF)c(=O)[nH]1
inactive: [12] 107 % of control | dose: 6.0 mg/kg/injection, schedule: Q01DX009 (ip), vehicle: saline 108 % of control | [13] 116 % of control | dose: 11.0 mg/kg/injection, schedule: Q01DX Z (ip), vehicle: saline 111 % of control | dose: 12.0 mg/kg/injection, schedule: Q01DX009 (ip), vehicle: saline 112 % of control | dose: 14.0 mg/kg/injection, schedule: Q01DX009 (ip), vehicle: saline 104 % of control | dose: 16.0 mg/kg/injection, schedule: Q01DX Z (ip), vehicle: saline 111 % of control | [14] 105 % of control and 124 % of control | dose: 24.0 mg/kg/injection, schedule: Q01DX009 (ip), vehicle: saline 122 % of control | dose: 30.0 mg/kg/injection, schedule: Q01DX009 (ip), vehicle: saline 119 % of control | [15] 116 % of control | dose: 50.0 mg/kg/injection, schedule: Q01DX001 (ip), vehicle: saline 110 % of control | [16] 119 % of control

C/C=C/C(=O)OCCN(CC)CC
inactive: dose: 50.0 mg/kg/injection, schedule: Q01DX009 (ip), vehicle: saline 103 % of control | dose: 100.0 mg/kg/injection, schedule: Q01DX009 (ip), vehicle: saline 103 % of control | dose: 200.0 mg/kg/injection, schedule: Q01DX009 (ip), vehicle: saline 100 % of control

CC(=O)c1c(C)cc(=O)[nH]c1O
inactive: [16] 107 % of control | dose: 200.0 mg/kg/injection, schedule: Q01DX001 (ip), vehicle: saline 97 % of control | dose: 400.0 mg/kg/injection, schedule: Q01DX001 (ip), vehicle: saline 110 % of control

COc1cc2cc3c4ccccc4cc[n+]3c(C)c2cc1OC (tested in a mixture with another compound)
inactive: dose: 2.5 mg/kg/injection, schedule: Q01DX009 (ip), vehicle: saline 102 % of control | [12] 110 % of control | [13] 115 % of control | [14] 121 % of control | [15] 118 % of control

CC(C)N1CSC(=S)N(Cc2ccccc2)C1
inactive: [11] 108 % of control | [1] 92 % of control | [8] 98 % of control | [2] 91 % of control | [9] 95 % of control | [3] 94 % of control | [10] 90 % of control
